# Results as given in patent publication US7988957B2, “Gene introduction efficiency enhancer” (Genesis Healthcare Corp., priority 2003, dated 2011).
# Key:
# [1] = system: human glioma cell line U251MG; assay: AAV-vector-mediated EGFP transgene expression, fluorescence microscope; format: cell-based; conditions: 24 hours
# Description: (§1) FK228 which had been isolated and purified through the method described in Japanese Patent Publication (kokoku) No. 7-64872 was employed as a histone deacetylase inhibitor. The FK228 was dissolved in ethanol for storage. When in use, the FK228 was diluted with a medium, to thereby regulate the FK228 concentration to fall within a range of 0 to 100 ng/mL.
# An AAV vector genome plasmid and a helper plasmid were introduced into 293 cells through the calcium phosphate method, and AAV vectors (types 1 to 5) which express EGFP (enhanced green fluorescent protein) under the control of a cytomegalovirus (CMV) promoter were prepared. Specifically, the AAV vector preparation was performed through the method described in the following references. • Reference 1: Methods 2002; 8: 237-247 (described above) • Reference 2: Methods Enzymol 2002; 346: 378-393 (described above) • 3. Cells and Cell Culture (1) Human Glioma Cell Line; U251MG, U87MG
# U251MG was obtained from JCRB Cell Bank, National Institute of Health Sciences. […]
# (§2) The effect of FK228 on enhancing expression of a transgene was evaluated with glioma cells. Type-2 AAV vector (1×10^4 genome copies/cell) and FK228 (0, 0.01, 0.1, 1, 10, or 100 ng/mL) were added to a culture supernatant of the human glioma cell line U251MG, and 24 hours later, expression of EGFP was observed under a fluorescence microscope.
# [2] = system: head and neck cancer cell line HEp-2; assay: AAV-vector-mediated EGFP transgene expression; format: cell-based, human; conditions: FK228 1 ng/mL
# Description: as §1
# (§3) An AAV vector genome plasmid and a helper plasmid were introduced into 293 cells through the calcium phosphate method, and AAV vectors (types 1 to 5) which express EGFP (enhanced green fluorescent protein) under the control of a cytomegalovirus (CMV) promoter were prepared. […]
# as §2
# (§4) Similar to the case of U251MG, in the cases of the head and neck cancer cell line HEp-2 and the subcultured human glioma cells (prepared from an operative specimen), the effect of FK228 in enhancing AAV-vector-mediated gene transfer was evaluated.
# [3] = system: subcultured human glioma cells (prepared from an operative specimen); assay: AAV-vector-mediated EGFP transgene expression; format: cell-based; conditions: FK228 1 ng/mL
# Description: as §1, §3, §2, §4
# U251MG [4] = assay: Percent occurrence of EGFP-positive cells by FACS analysis; format: cell-based, human; conditions: FK228 1 ng/mL, type-2 AAV vector, 24 hours, FIG. 1B
# Description: (§5) Type-2 AAV vector (1×10^4 genome copies/cell) and FK228 (0, 0.01, 0.1, or 1 ng/mL) were added to a culture supernatant of U251MG, and 24 hours later, the percent occurrence of cells positive for CD51 (integrin) or EGFP was calculated through FACS analysis. The FACS analysis was performed through a customary method by use of FACSCan (Becton Dickinson, San Jose, Calif.) and CellQuest software (Becton Dickinson, San Jose, Calif.).
# (§6) PE-labeled anti-CD51 monoclonal antibody: 13C2 was obtained from Cymbus Biotechnology Ltd., Chandlers Ford, UK. Dead cells were detected by means of 7-amino-actinomycin D (Via-Probe; Pharmingen, San Diego, Calif.).
# (§7) Cells were washed with a FACS buffer (PBS containing 5% FBS and 0.05% sodium azide), and then incubated with the antibody on ice for 30 minutes. Fluorescences attributed to EGFP, PE, and Via-Probe were detected by FL1, FL2, and FL3, respectively. Cells negative for Via-Probe; i.e., viable cells, were employed for measuring expression of EGFP and/or CD51.
# CD51 (integrin) = assay: Percent occurrence of CD51 (integrin)-positive cells by FACS analysis; format: cell-based, human; conditions: FK228 0, 0.01, 0.1 or 1 ng/mL; 24 hours; U251MG; FIG. 1A
# Description: as §5, §6, §7
# U251MG [5] = assay: Number of viral genome copies taken into cells, real-time PCR; format: cell-based, human; conditions: FK228 1 ng/mL
# Description: Type-2 AAV vector (1×10^4 genome copies/cell) and FK228 (1 ng/mL) were added to a culture supernatant of U251MG, and the number of viral genome copies taken into cells was semi-quantified by means of real-time PCR (ABI, Prism 7700; QIAGEN, SYBR Green PCR kit QuantiTect) (performed through the method according to Mol. Ther. Aug. 6, 2002 (2): 272-278). After U251MG cells were infected with the type-2 AAV vector, the number of intracellular genome copies was measured in a time-course manner (0, 2, 4, 12, and 24 hours).
smiles,measurement,setting,value
C/C=C1\NC(=O)[C@H]2CSSCC/C=C/[C@H](CC(=O)N[C@H](C(C)C)C(=O)N2)OC(=O)[C@H](C(C)C)NC1=O [FK228],EGFP expression enhancing effect,"[1]; FK228 at 1 ng/mL or more, type-2 AAV vector",remarkable EGFP expression enhancing effect
same,expression of EGFP,"[1]; Type-2 AAV vector 1×10^4 genome copies/cell, FK228 0, 0.01, 0.1, 1, 10 or 100 ng/mL",enhanced in an FK228-dose-dependent manner
same,EGFP expression,[2],enhanced
same,EGFP expression,[3],enhanced
same,percent occurrence of EGFP-positive cells,U251MG [4],sharply increased
same,percent occurrence of integrin-positive cells,CD51 (integrin),gradual increase
same,genome copy number in the FK228-treated group,U251MG [5]; 24 hours after the infection,slight increase
same,"genome copy number, FK228-treated group versus control group (only a solvent)","U251MG [5]; type-2 AAV vector, 0, 2, 4, 12 and 24 hours, FIG. 2",No significant difference
